Data reported in US11633444B2, “Sporoderm-removed Ganoderma lucidum spore powder, granule and preparation method thereof” (ZHEJIANG SHOUXIANGU PHARMACEUTICAL COMPANY, LTD, priority 2017, dated 2023).
Structures can show the parent of a compound that is named as a salt.

Legend:
Type in all cases: in vivo
[1] = system: human gastric cancer (SGC-7901) transplanted tumor; assay: Zebrafish human gastric cancer (SGC-7901) transplanted tumor model; details: SGC-7901, 50 μM, 2 days at 35° C., n = 10
Excerpt: Human gastric cancer (SGC-7901) cells were labeled with a red fluorescent dye (CM-Dil), and transplanted into zebrafish yolk sacs by microinjection, with about 200 cells being transplanted per zebrafish, so as to establish a zebrafish human gastric cancer transplanted tumor model.
(§1) Human gastric cancer (SGC-7901) cells were labeled with CM-Dil, and transplanted into 2 dpf wild type AB strain zebrafish yolk sacs by microinjection, with about 200 cells being transplanted per zebrafish, so as to establish a zebrafish human gastric cancer (SGC-7901) transplanted model; and the zebrafishes injected with the SGC-7901 cells were fed at 35° C. until 3 dpf.
(§2) Zebrafishes with better consistence in transplanted tumor cells were picked out under a microscope, randomly assigned to a 6-well plate, and were given in a water-dissolving administration manner respectively with the samples at concentrations respectively of 28, 83 and 250 μg/mL and the positive control drug cis-platinum at a concentration of 50 μM; and meanwhile a model control group was set, where there were 30 zebrafishes per well (concentration group), and the volume of each well was 5 mL. The zebrafishes in each experiment (concentration) group were continually cultured at 35° C., and after 2 days, 10 zebrafishes were randomly selected from each experiment (concentration) group to observe under a fluorescence microscope, and photographs of the 10 zebrafishes were taken and saved; and the photographs were analyzed using Nikon NIS-Elements D 3.10 Advanced image processing software to calculate the fluorescence intensities of cancer cells. The inhibitory effects of samples on the zebrafish gastric cancer (SGC-7901) transplanted tumor were respectively evaluated with the fluorescence intensities, and the tumor inhibition effect was calculated using the following equation. […]

[2] = system: human lung adenocarcinoma (A549) transplanted tumor; assay: Zebrafish human lung adenocarcinoma (A549) transplanted tumor model; details: A549, 50 μM, 2 days at 35° C., n = 10
Excerpt: Human lung adenocarcinoma (A549) cells were labeled with a red fluorescent dye (CM-Dil), and transplanted into zebrafish yolk sacs by microinjection, with about 200 cells being transplanted per zebrafish, so as to establish a zebrafish human lung adenocarcinoma transplanted tumor model.
as §1, with “lung adenocarcinoma (A549)” for “gastric cancer (SGC-7901)”, “A549” for “SGC-7901”
as §2, with “inhibitory effect” for “inhibitory effects”, “of the sample” for “of samples”, “zebrafish lung adenocarcinoma (A549)” for “zebrafish gastric cancer (SGC-7901)”, “tumor was” for “tumor were respectively”

[3] = system: human lymphatic cancer (Ramos) transplanted tumor; assay: Zebrafish human lymphatic cancer (Ramos) transplanted tumor model; details: 2 days at 35° C.; for Pixel of Sum of Fluorescence Intensities (mean ± SE): 5 μM
Excerpt: Human lymphatic cancer (Ramos) cells were labeled with a red fluorescent dye (CM-Dil), and transplanted into zebrafish yolk sacs by microinjection, with about 200 cells being transplanted per zebrafish, so as to establish a zebrafish human lymphatic cancer transplanted tumor model.
Human lymphatic cancer (Ramos) cells were labeled with CM-Dil, and transplanted into 2 dpf wild type AB strain zebrafish yolk sacs by microinjection, with about 200 cells being transplanted per zebrafish, so as to establish a zebrafish human lymphatic cancer transplanted model; and the zebrafishes injected with the human lymphatic cancer cells were fed at 35° C. until 3 dpf.
Zebrafishes with better consistence in transplanted tumor cells were picked out under a microscope, randomly assigned to a 6-well plate, and were given in a water-dissolving administration manner respectively with the samples at concentrations respectively of 28, 83 and 250 μg/mL and the positive control drug vincristine at a concentration of 5 μM; and meanwhile a model control group was set, where there were 30 zebrafishes per well (concentration group), and the volume of each well was 5 mL. The zebrafishes in each experiment group were continually cultured at 35° C., and after 2 days, 10 zebrafishes were randomly selected from each experiment group to observe under a fluorescence microscope, and photographs of the 10 zebrafishes were taken and saved; and the photographs were analyzed using Nikon NIS-Elements D 3.10 Advanced image processing software to calculate the fluorescence intensities of cancer cells. The inhibitory effect of the sample on the zebrafish lymphatic cancer (Ramos) transplanted tumor was evaluated with the fluorescence intensities, and the tumor inhibition effect was calculated using the following equation.
A concentration-effect curve was drawn according to a growth inhibition effect on the transplanted tumor; statistical analysis was performed by variance analysis and Dunnett's T-test, where p<0.05 was considered as a significant difference; such that a representative experimental map was provided.

| SMILES | Inhibition Effect [1] [%] | Pixel of Sum of Fluorescence Intensities (mean ± SE) [1] [pixels] | Pixel of Sum of Fluorescence Intensities (mean ± SE) ([1]; listed as cis-platinum) | Inhibition Effect [2] [%] | Pixel of Sum of Fluorescence Intensities (mean ± SE) [2] [pixels] | Pixel of Sum of Fluorescence Intensities (mean ± SE) ([2]; listed as cis-platinum) | Pixel of Sum of Fluorescence Intensities (mean ± SE) ([3]; n = 10) [pixels] | Pixel of Sum of Fluorescence Intensities (mean ± SE) ([3]; n = 10, listed as vincristine) | inhibition at 5 µM ([3]; Danio rerio, 48 h, n = 10, read-out: Inhibition Effect) [%] |
| --- | --- | --- | --- | --- | --- | --- | --- | --- | --- |
| N.N.[Cl][Pt][Cl] [Cis-platinum] | 36 | 237655 ± 12361 | 237,655 pixels | 32 | 137287 ± 7835 | 137,287 pixels | – | – | – |
| CC[C@]1(O)C[C@H]2CN(CCc3c([nH]c4ccccc34)[C@@](C(=O)OC)(c3cc4c(cc3OC)N(C=O)[C@H]3[C@@](O)(C(=O)OC)[C@H](OC(C)=O)[C@]5(CC)C=CCN6CC[C@]43[C@@H]65)C2)C1 [Vincristine, Vincristine sulfate] | – | – | – | – | – | – | 153919 ± 13691 | 153,919 pixels | 33 |
